The values below are quoted from earlier work in US8753679B2, “Capsule formulation of pirfenidone and pharmaceutically acceptable excipients” (Intermune, Inc., priority 2005, dated 2014).

By Tmax is commonly meant the time from dosing to the highest level. Usually Cmax stands for the highest concentration seen after dosing.

Like-named read-outs stand apart in the source and are kept apart here.

The conditions of data set [1]: oral 400 mg, capsule of 100% pirfenidone.
Data set [2] relates to benign prostate hypertrophy. To be noted: oral pirfenidone, older men with clinically advanced BPH.
For data set [3] the following is noted: 200 mg single dose on day 1, coated tablet with excipients, 15 patients, serum.
The test system of data set [4] is human mesenchymal-like cells (including lung fibroblasts, skin fibroblasts, prostate stromal cells, and renal mesangial cells).
The test system of data set [5] is pulmonary fibrosis. To be noted: after 4 to 6 months on oral pirfenidone.
The conditions of data set [6]: single oral dose 400 mg as four 100 mg capsules of 100% pirfenidone, 10 healthy adult males, plasma.

Take `Cc1ccc(=O)n(-c2ccccc2)c1` [Pirfenidone, 5-methyl-1-phenyl-2-(1H)-pyridone]: the T1/2 was 2.87 ± 0.22 h in data set [1] (ten human volunteers), 3.5 ± 2.2 h in data set [3] and 2.2 ± 0.6 h in data set [6]. Also, the “time at which maximum serum pirfenidone level was reached” value in data set [1] (ten human volunteers (FIG. 3)) is “between one and three hours”. In data set [2], the “response of patients based on objective criteria” value is “functional improvement”. In data set [3], the AUC4hr was 7300 ± 1600 ng·h/mL. Besides, the Tmax in data set [3] was 1.8 ± 1.1 h; in data set [6], 0.9 ± 0.3 h. Further, the Cmax in data set [3] (HPLC) is 2700 ± 700 ng/mL; in data set [6] (gas chromatography), 6300 ± 2500 ng/mL. In addition, in data set [4] (graded concentrations in cell culture media), the “effective levels relative to levels exerting pharmacologically toxic effects on the cells” value is “ten to twenty times lower”. Moreover, in data set [4] (in vitro cell cultures), the “effect on excessive cell proliferation induced by cytokine growth factors (TGF-β1, bFGF, PDGF, and EGF)” value is “pharmacologic inhibition”. In addition, in data set [5], the “lung function (pulmonary function tests, VC, DLCO)” value was “inhibition or blocking of further deterioration in lung function”. Besides, the observed side effects result (after oral administration, drowsiness, gastric nausea or photosensitivity rash) is recorded as “relatively mild”. Also, the serious adverse reactions entry (clinical investigations) is given as “No serious adverse reactions”. The AUC6hr in data set [6] is given as 20.8±10.0 μg/mL-hr.
